Measured values: US20220175693A1, “DIETARY SUPPLEMENT COMPRISING LUTEIN FOR TELOMERE PROTECTION, AND METHOD FOR PRODUCTION THEREOF” (BIOGEN EXTRACTS PRIVATE LIMITED, priority 2019, published 2022)

Key:
[1] = test system: human adult primary fibroblast cells; assay: Telomere length by Telomere Analysis Technology (HT Q-FISH) and telomere shortening rate; assay type: cell-based
Description: A high-throughput (HT) Q-FISH technique was used. This method is based on a quantitative fluorescence in-situ hybridization method modified for cells in interphase2. In brief, telomeres are hybridized with a fluorescent Peptide Nucleic Acid probe (PNA) that recognizes three telomere repeats. The images of the nuclei and telomeres are captured by a high-content screen system. The intensity of the fluorescent signal from the telomeric PNA probes that hybridize to a given telomere is proportional to the length of that telomere. The intensities of fluorescence are translated to base pairs through a standard regression curve which is generated using control cell lines with known telomere length.
(§1) Sample Preparation and HT Q-FISH: On processing day, the samples and control cell lines frozen in liquid nitrogen are thawed at 37° C. and cell counts and cellular viability are determined. Aliquots with viability lower than 60% are considered below our QC standards and are not further analyzed. Cells are seeded in clear bottom black-walled 384-well plates at 15,000 cells per well in 5 replicates for each sample and 8 replicates for each control cell line.
Cells are fixed with methanol/acetic acid (3/1, vol/vol). Once these cells have fixed onto the plate, they are treated with pepsin to digest the cytoplasm and the nuclei are processed for in situ hybridization with the PNA probe. After several washing steps following standard DAPI incubation for DNA staining, the wells are filled up with mounting medium and the plate is stored overnight at 4° C.
HT Microscopy: Quantitative image acquisition and analysis is performed on a High Content Screening Opera System. Images are captured, using a 40×0.95 NA water immersion objective. UV and 488 nm excitation wavelengths are used to detect the DAPI and A488 signals respectively. With constant exposure settings, 15 independent images are captured at different positions for each well. Next, the nuclei images are used to define the region of interest for each cell, measuring telomere fluorescence intensity of the A488 image in all of them. The results of intensity for each foci are exported to the Columbus 2.4 software. Telomere length distribution and median telomere length are calculated with Life Length's proprietary program.
Median telomere length, 20th percentile telomere length, percentage of short telomeres and the coefficients of variation for each set of samples. The percentage of short telomeres is defined as the percentage of those below 3 Kbp (<3 Kbp). As mentioned earlier, measurements in five replicates per sample were performed.
For TAT analysis, data were grouped by condition (Ctrl, H2O2, LUT10, LUT5, LUT1, LUT10+H2O2, LUT5+H2O2, LUT1+H2O2) and time point of treatment (0, 4, and 8 weeks).
Due to the fact that DNA replication during the cell cycle causes of telomere shortening, the telomere length measurements performed were normalized by the total number of population doubling (cell replication) in each condition and week.
Telomere shortening rate was analysed, Median of telomere length (initial-final)/Population Doubling, at the defined time points and treatments, FIG. 8.
Graph of telomere length vs Population doubling at different treatments. Slope of regression line in each condition, represents the telomere shortening rate. Y=aX+b; a=slope andbb=y intercept, FIG. 9.

[2] = test system: human adult primary fibroblast cells; assay: Cell count and viability of samples after thawing (Tripan-Blue exclusion); assay type: cell-based
Description: as §1, with “line. Cell count: An automated cell counter is used to determine the total number of cells in the vials. A minimum of 100.000 cells are needed to perform TAT. Cell viability by Tripan-Blue exclusion method. The exclusion criteria currently in place will reject aliquots with less than 60% viable cells.” for “line.”

[3] = Lutein 1 μg/ml + 10 μM H2O2, week 4 (P4)
[4] = Lutein 1 μg/ml + 10 μM H2O2, week 8 (P8)
[5] = Lutein 1 μg/ml, standard culture, week 4 (P4)
[6] = Lutein 1 μg/ml, standard culture, week 8 (P8)
[7] = Lutein 5 μg/ml + 10 μM H2O2, week 4 (P4)
[8] = Lutein 5 μg/ml + 10 μM H2O2, week 8 (P8)
[9] = Lutein 5 μg/ml, standard culture, week 4 (P4)
[10] = Lutein 5 μg/ml, standard culture, week 8 (P8)
[11] = Lutein 10 μg/ml + 10 μM H2O2, week 4 (P4)
[12] = Lutein 10 μg/ml + 10 μM H2O2, week 8 (P8)
[13] = Lutein 10 μg/ml, standard culture, week 4 (P4)
[14] = Lutein 10 μg/ml, standard culture, week 8 (P8)

CC1=C[C@H](O)CC(C)(C)[C@H]1/C=C/C(C)=C/C=C/C(C)=C/C=C/C=C(C)/C=C/C=C(C)/C=C/C1=C(C)C[C@@H](O)CC1(C)C [Lutein]
Telomere shortening rate versus control ([1]; Lutein 1 μg/ml (LUT1), standard conditions, 8 weeks): significant increase | Median Telomere Length (Table 7A) ([1]; Lutein 1 μg/ml + 10 μM H2O2, week 4): 5980 bp | 20th Percentile Length (telomere, TAT) [1, 3]: 3381 base pairs | Median Length (telomere, TAT) [1, 3]: 5997 base pairs | Telomere shortening rate (Median of telomere length (initial-final)/Population Doubling) [1, 3]: 111 bp/PD | Telomeres <3 Kbp (percentage of short telomeres) [1, 3]: 16.72% | Median Telomere Length (Table 7A) ([1]; Lutein 1 μg/ml + 10 μM H2O2, week 8): 6045 bp | 20th Percentile Length (telomere, TAT) [1, 4]: 2848 base pairs | Median Length (telomere, TAT) [1, 4]: 6037 base pairs | Telomere shortening rate (Median of telomere length (initial-final)/Population Doubling) [1, 4]: 63 bp/PD | Telomeres <3 Kbp (percentage of short telomeres) [1, 4]: 21.14% | Slope (Telomere Shortening Rate) of regression line, telomere length vs Population doubling ([1]; Lutein 1 μg/ml + 10 μM H2O2, weeks 0-8): y = −66.365x + 7187.3 | Median Telomere Length (Table 7A) ([1]; Lutein 1 μg/ml, standard culture, week 4): 5984 bp | 20th Percentile Length (telomere, TAT) [1, 5]: 3351 base pairs | Median Length (telomere, TAT) [1, 5]: 5977 base pairs | Telomere shortening rate (Median of telomere length (initial-final)/Population Doubling) [1, 5]: 100 bp/PD | Telomeres <3 Kbp (percentage of short telomeres) [1, 5]: 16.87% | Median Telomere Length (Table 7A) ([1]; Lutein 1 μg/ml, standard culture, week 8): 6071 bp | 20th Percentile Length (telomere, TAT) [1, 6]: 2848 base pairs | Median Length (telomere, TAT) [1, 6]: 6077 base pairs | Telomere shortening rate (Median of telomere length (initial-final)/Population Doubling) [1, 6]: 53 bp/PD | Telomeres <3 Kbp (percentage of short telomeres) [1, 6]: 21.29% | Slope (Telomere Shortening Rate) of regression line, telomere length vs Population doubling ([1]; Lutein 1 μg/ml, standard culture, weeks 0-8): y = −55.261x + 7163.8 | Median Telomere Length (Table 7A) ([1]; Lutein 5 μg/ml + 10 μM H2O2, week 4): 6085 bp | 20th Percentile Length (telomere, TAT) [1, 7]: 3351 base pairs | Median Length (telomere, TAT) [1, 7]: 6077 base pairs | Telomere shortening rate (Median of telomere length (initial-final)/Population Doubling) [1, 7]: 93 bp/PD | Telomeres <3 Kbp (percentage of short telomeres) [1, 7]: 16.97% | Median Telomere Length (Table 7A) ([1]; Lutein 5 μg/ml + 10 μM H2O2, week 8): 5980 bp | 20th Percentile Length (telomere, TAT) [1, 8]: 2977 base pairs | Median Length (telomere, TAT) [1, 8]: 5977 base pairs | Telomere shortening rate (Median of telomere length (initial-final)/Population Doubling) [1, 8]: 59 bp/PD | Telomeres <3 Kbp (percentage of short telomeres) [1, 8]: 20.09% | Slope (Telomere Shortening Rate) of regression line, telomere length vs Population doubling ([1]; Lutein 5 μg/ml + 10 μM H2O2, weeks 0-8): y = −61.587x + 7222 | Median Telomere Length (Table 7A) ([1]; Lutein 5 μg/ml, standard culture, week 4): 6340 bp | 20th Percentile Length (telomere, TAT) [1, 9]: 3104 base pairs | Median Length (telomere, TAT) [1, 9]: 6349 base pairs | Telomere shortening rate (Median of telomere length (initial-final)/Population Doubling) [1, 9]: 80 bp/PD | Telomeres <3 Kbp (percentage of short telomeres) [1, 9]: 18.98% | Median Telomere Length (Table 7A) ([1]; Lutein 5 μg/ml, standard culture, week 8): 6177 bp | 20th Percentile Length (telomere, TAT) [1, 10]: 2945 base pairs | Median Length (telomere, TAT) [1, 10]: 6037 base pairs | Telomere shortening rate (Median of telomere length (initial-final)/Population Doubling) [1, 10]: 55 bp/PD | Telomeres <3 Kbp (percentage of short telomeres) [1, 10]: 20.51% | Slope (Telomere Shortening Rate) of regression line, telomere length vs Population doubling ([1]; Lutein 5 μg/ml, standard culture, weeks 0-8): y = −56.796x + 7261.1 | Median Telomere Length (Table 7A) ([1]; Lutein 10 μg/ml + 10 μM H2O2, week 4): 5804 bp | 20th Percentile Length (telomere, TAT) [1, 11]: 3073 base pairs | Median Length (telomere, TAT) [1, 11]: 5772 base pairs | Telomere shortening rate (Median of telomere length (initial-final)/Population Doubling) [1, 11]: 118 bp/PD | Telomeres <3 Kbp (percentage of short telomeres) [1, 11]: 19.10% | Median Telomere Length (Table 7A) ([1]; Lutein 10 μg/ml + 10 μM H2O2, week 8): 5972 bp | 20th Percentile Length (telomere, TAT) [1, 12]: 2977 base pairs | Median Length (telomere, TAT) [1, 12]: 5977 base pairs | Telomere shortening rate (Median of telomere length (initial-final)/Population Doubling) [1, 12]: 66 bp/PD | Telomeres <3 Kbp (percentage of short telomeres) [1, 12]: 20.09% | Slope (Telomere Shortening Rate) of regression line, telomere length vs Population doubling ([1]; Lutein 10 μg/ml + 10 μM H2O2, weeks 0-8): y = −71.479x + 7181.9 | Median Telomere Length (Table 7A) ([1]; Lutein 10 μg/ml, standard culture, week 4): 6272 bp | 20th Percentile Length (telomere, TAT) [1, 13]: 3198 base pairs | Median Length (telomere, TAT) [1, 13]: 6330 base pairs | Telomere shortening rate (Median of telomere length (initial-final)/Population Doubling) [1, 13]: 81 bp/PD | Telomeres <3 Kbp (percentage of short telomeres) [1, 13]: 18.48% | Median Telomere Length (Table 7A) ([1]; Lutein 10 μg/ml, standard culture, week 8): 6008 bp | 20th Percentile Length (telomere, TAT) [1, 14]: 2977 base pairs | Median Length (telomere, TAT) [1, 14]: 5997 base pairs | Telomere shortening rate (Median of telomere length (initial-final)/Population Doubling) [1, 14]: 56 bp/PD | Telomeres <3 Kbp (percentage of short telomeres) [1, 14]: 20.21% | Slope (Telomere Shortening Rate) of regression line, telomere length vs Population doubling ([1]; Lutein 10 μg/ml, standard culture, weeks 0-8): y = −57.039x + 7250 | Telomere shortening rate compared to control (H2O2) ([1]; Lutein 10, 5 and 1 μg/ml + 10 μM H2O2, after 8 passages): significant difference | Effect on telomere length erosion in vitro ([1]; oxidative stress conditions, after 8 passages): significant protective effect | Telomere analysis versus control, other differences ([1]; treated groups in standard conditions (LUT10, LUT5, LUT1), 8 weeks): No other significant differences | Viability of sample after thawing [2, 3]: 87% | Viability of sample after thawing [2, 4]: 87% | Viability of sample after thawing [2, 5]: 80% | Viability of sample after thawing [2, 6]: 91% | Viability of sample after thawing [2, 7]: 81% | Viability of sample after thawing [2, 8]: 76% | Viability of sample after thawing [2, 9]: 96% | Viability of sample after thawing [2, 10]: 91% | Viability of sample after thawing [2, 11]: 96% | Viability of sample after thawing [2, 12]: 92% | Viability of sample after thawing [2, 13]: 96% | Viability of sample after thawing [2, 14]: 87%
